Source: publication PMC8756595 (ACS Omega, 2021)

Target: bovine erythrocyte CA II (bCA-II) (Bos taurus, UniProt P00921)
Experiment: In vitro carbonic anhydrase inhibition assay
Format: biochemical
Settings: for % inhibition: bCA-II, substrate 4-NPA, 25 °C, pH 7.4, test concentration not given; for inhibition activity against bCA-II (in words): qualitative statement

Sequence of bovine erythrocyte CA II (bCA-II) (P00921 whole entry): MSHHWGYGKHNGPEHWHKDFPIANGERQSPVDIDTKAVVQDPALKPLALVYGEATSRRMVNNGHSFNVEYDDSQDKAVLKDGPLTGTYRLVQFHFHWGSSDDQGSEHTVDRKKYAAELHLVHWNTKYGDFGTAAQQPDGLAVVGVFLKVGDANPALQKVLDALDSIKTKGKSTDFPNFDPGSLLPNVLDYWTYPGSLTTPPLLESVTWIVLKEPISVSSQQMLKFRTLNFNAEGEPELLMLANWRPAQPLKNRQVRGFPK

Structure (SMILES): CCCSc1nc2ccccc2n1CC(=O)NN=Cc1ccc(OC)cc1OC [Compound 15, N′-(2,4-Dimethoxybenzylidene)-2-(2-(propylthio)-1H-benzo[d]imidazol-1-yl)acetohydrazide]
- IC50: 14.5 ± 1.05 µM
- % inhibition: 91.2%

Structure (SMILES): CCCSc1nc2ccccc2n1CC(=O)NN=Cc1ccc(OC)c(OC)c1 [Compound 13, N′-(3,4-Dimethoxybenzylidene)-2-(2-(propylthio)-1H-benzo[d]imidazol-1-yl)acetohydrazide]
- % inhibition: 38.1%
- inhibition activity against bCA-II (in words): inactive

Structure (SMILES): CCCSc1nc2ccccc2n1CC(=O)NN=Cc1ccc(C)cc1 [Compound 19, N′-(4-Methylbenzylidene)-2-(2-(propylthio)-1H-benzo[d]imidazol-1-yl)acetohydrazide]
- % inhibition: 13.6%
- inhibition activity against bCA-II (in words): inactive

Structure (SMILES): CCCSc1nc2ccccc2n1CC(=O)NN=Cc1ccco1 [Compound 25, N′-(Furan-2-ylmethylene)-2-(2-(propylthio)-1H-benzo[d]imidazol-1-yl)acetohydrazide]
- IC50: 193 ± 3.24 µM
- % inhibition: 57.0%
- inhibition activity against bCA-II (in words): least active inhibitors

Structure (SMILES): CCCSc1nc2ccccc2n1CC(=O)NN=Cc1ccc(O)cc1O [Compound 14, N′-(2,4-Dihydroxybenzylidene)-2-(2-(propylthio)-1H-benzo[d]imidazol-1-yl)acetohydrazide]
- % inhibition: 20.8%
- inhibition activity against bCA-II (in words): inactive

Structure (SMILES): CCCSc1nc2ccccc2n1CC(=O)NN=Cc1ccccc1OC [Compound 29, N′-(2-Methoxybenzylidene)-2-(2-(propylthio)-1H-benzo[d]imidazol-1-yl)acetohydrazide]
- IC50: 21 ± 0.74 µM
- % inhibition: 88.2%

Structure (SMILES): CCCSc1nc2ccccc2n1CC(=O)NN=Cc1cccc(OC)c1 [Compound 11, N′-(3-Methoxybenzylidene)-2-(2-(propylthio)-1H-benzo[d]imidazol-1-yl)acetohydrazide]
- % inhibition: 22.8%
- inhibition activity against bCA-II (in words): inactive

Structure (SMILES): CCCSc1nc2ccccc2n1CC(=O)NN=Cc1ccc(C=O)cc1 [Compound 21, N′-(4-Formylbenzylidene)-2-(2-(propylthio)-1H-benzo[d]imidazol-1-yl)acetohydrazide]
- % inhibition: 42.2%
- inhibition activity against bCA-II (in words): inactive

Structure (SMILES): CCCSc1nc2ccccc2n1CC(=O)NN=Cc1ccc(O)c(OC)c1 [Compound 18, N′-(4-Hydroxy-3-methoxybenzylidene)-2-(2-(propylthio)-1H-benzo[d]imidazol-1-yl)acetohydrazide]
- IC50: 22.7 ± 1.37 µM
- % inhibition: 81.2%

Structure (SMILES): CCCSc1nc2ccccc2n1CC(=O)NN=Cc1ccc(C)o1 [Compound 26, N′-((5-Methylfuran-2-yl)methylene)-2-(2-(propylthio)-1H-benzo[d]imidazol-1-yl)acetohydrazide]
- IC50: 166 ± 1.61 µM
- % inhibition: 67.8%
- inhibition activity against bCA-II (in words): least active inhibitors

Structure (SMILES): CCCSc1nc2ccccc2n1CC(=O)NN=Cc1ccc(F)cc1 [Compound 24, N′-(4-Fluorobenzylidene)-2-(2-(propylthio)-1H-benzo[d]imidazol-1-yl)acetohydrazide]
- IC50: 162 ± 3.54 µM
- % inhibition: 84.3%
- inhibition activity against bCA-II (in words): least active inhibitors

Structure (SMILES): CCCSc1nc2ccccc2n1CC(=O)NN=Cc1cccc(OC)c1O [Compound 9, N′-(2-Hydroxy-3-methoxybenzylidene)-2-(2-(propylthio)-1H-benzo[d]imidazol-1-yl)acetohydrazide]
- IC50: 13.3 ± 1.25 µM
- % inhibition: 89.1%

Structure (SMILES): CCCSc1nc2ccccc2n1CC(=O)NN=Cc1c(Cl)cccc1Cl [Compound 28, N′-(2,6-Dichlorobenzylidene)-2-(2-(propylthio)-1H-benzo[d]imidazol-1-yl)acetohydrazide]
- IC50: 42.1 ± 1.39 µM
- % inhibition: 67.6%
- inhibition activity against bCA-II (in words): least active inhibitors

Structure (SMILES): CCCSc1nc2ccccc2n1CC(=O)NN=Cc1cccc(OC)c1OC [Compound 27, N′-(2,3-Dimethoxybenzylidene)-2-(2-(propylthio)-1H-benzo[d]imidazol-1-yl)acetohydrazide]
- IC50: 55.6 ± 4.25 µM
- % inhibition: 89.6%
- inhibition activity against bCA-II (in words): least active inhibitors

Structure (SMILES): CCCSc1nc2ccccc2n1CC(=O)NN=Cc1cccc2ccccc12 [Compound 12, N′-(Naphthalen-1-ylmethylene)-2-(2-(propylthio)-1H-benzo[d]imidazol-1-yl)acetohydrazide]
- IC50: 14.6 ± 0.62 µM
- % inhibition: 91.7%

Structure (SMILES): CCCSc1nc2ccccc2n1CC(=O)NN=Cc1cccs1 [Compound 23, 2-(2-(Propylthio)-1H-benzo[d]imidazol-1-yl)-N′-(thiophen-2-ylmethylene)acetohydrazide]
- IC50: 24.8 ± 1.24 µM
- % inhibition: 89.8%

Structure (SMILES): CCCSc1nc2ccccc2n1CC(=O)NN=Cc1ccc(O)c(OCC)c1 [Compound 20, N′-(3-Ethoxy-4-hydroxybenzylidene)-2-(2-(propylthio)-1H-benzo[d]imidazol-1-yl)acetohydrazide]
- IC50: 45.5 ± 2.07 µM
- % inhibition: 67.7%
- inhibition activity against bCA-II (in words): least active inhibitors

Structure (SMILES): CCCSc1nc2ccccc2n1CC(=O)NN=Cc1ccccc1 [Compound 10, N′-Benzylidene-2-(2-(propylthio)-1H-benzo[d]imidazol-1-yl)acetohydrazide]
- IC50: 17.2 ± 1.24 µM
- % inhibition: 83.0%

Structure (SMILES): CCCSc1nc2ccccc2n1CC(=O)NN=Cc1ccc(N(CC)CC)cc1 [Compound 16, N′-(4-(Diethylamino)benzylidene)-2-(2-(propylthio)-1H-benzo[d]imidazol-1-yl)acetohydrazide]
- % inhibition: 5.6%
- inhibition activity against bCA-II (in words): inactive

Structure (SMILES): CCCSc1nc2ccccc2n1CC(=O)NN=Cc1ccc(C(C)C)cc1 [Compound 22, N′-(4-Isopropylbenzylidene)-2-(2-(propylthio)-1H-benzo[d]imidazol-1-yl)acetohydrazide]
- IC50: 24.7 ± 3 µM
- % inhibition: 90.1%

Structure (SMILES): CCCSc1nc2ccccc2n1CC(=O)NN=Cc1cccc(O)c1 [Compound 17, N′-(3-Hydroxybenzylidene)-2-(2-(propylthio)-1H-benzo[d]imidazol-1-yl)acetohydrazide]
- IC50: 31.4 ± 2.29 µM
- % inhibition: 90.7%
- inhibition activity against bCA-II (in words): least active inhibitors
